Data published in patent US8586530B2, “Modulation of inhibition of ferrochelatase by N-methyl protoporphyrin” (University of South Florida, priority 2006, dated 2013).
Substitutions are numbered along the chain they refer to.

What was measured:
[1] = target: T1, wild-type, murine ferrochelatase (Mus musculus, UniProt P22315); assay: Fluorescence titration of NMPP binding (quenching of intrinsic protein fluorescence); conditions: 10 mM Tris-acetate pH 8, 0.05% Tween-80, read-out: dissociation constant (Kd) of NMPP
T1 construct: In wild-type, murine, mature ferrochelatase, five tryptophan residues; penta-histidine tag (N); made in house; host or cells: E. coli BL21(DE3)
T1 sequence (P22315 54-422): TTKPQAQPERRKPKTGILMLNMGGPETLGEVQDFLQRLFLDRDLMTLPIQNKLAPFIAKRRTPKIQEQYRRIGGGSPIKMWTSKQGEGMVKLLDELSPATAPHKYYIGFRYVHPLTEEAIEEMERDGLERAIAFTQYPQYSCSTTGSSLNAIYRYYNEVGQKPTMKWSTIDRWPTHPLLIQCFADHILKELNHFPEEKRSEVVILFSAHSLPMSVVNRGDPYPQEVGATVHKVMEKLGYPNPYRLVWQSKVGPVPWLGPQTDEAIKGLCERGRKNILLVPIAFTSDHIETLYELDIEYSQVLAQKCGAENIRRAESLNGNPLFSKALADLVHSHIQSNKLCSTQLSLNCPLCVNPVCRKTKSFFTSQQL
Method: (§1) Aliquots of NMPP were added to a solution of enzyme in 10 mM Tris-acetate, pH 8 containing 0.05% Tween-80 and incubated on ice for 1 hr. The intrinsic protein fluorescence was monitored at 331 nm (λex=283 nm). The Kd value for NMPP was determined by fitting the data to Equation 3. The enzymes used in each set were: A. wild-type ferrochelatase (40 nM); B. P255R (250 nM); C. P255G (120 nM).
(§2) The equilibrium constant for NMPP binding to ferrochelatase could be determined from the change in intrinsic protein fluorescence upon ligand addition. […]
(§3) Fluorescence Titration Measurements. Equilibrium fluorescence measurements were made using a Shimadzu RF-5301PC fluorimeter at 23° C. with excitation and emission wavelengths at 283 nm and 331 nm, respectively. The decrease in protein fluorescence, due to NMPP binding, was monitored. […] In a typical titration experiment, aliquots of the NMPP stock were added to the protein solution and, upon incubation on ice for 1 h, the quenching in fluorescence was monitored as described above. […] The observed fluorescence intensity was plotted against NMPP concentration and the dissociation constant of NMPP for ferrochelatase was determined using the least-squares fit of each data set to equation 3 by nonlinear regression: […]

[2] = target: T2, ferrochelatase variant P255G (Mus musculus, UniProt P22315, P308G); assay: as above; design: species or system murine; conditions: 10 mM Tris-acetate pH 8, 0.05% Tween-80, read-out: dissociation constant (Kd) of NMPP
T2 construct: In wild-type, murine, mature ferrochelatase, five tryptophan residues; penta-histidine tag (N); made in house; host or cells: E. coli BL21(DE3)
T2 sequence (P22315 54-422 P308G): T1 sequence (P22315 54-422) with P255G
Method: as §1, §2, §3

[3] = target: T3, ferrochelatase variant P255R (Mus musculus, UniProt P22315, P308R); assay: as above; design: species or system murine; conditions: 10 mM Tris-acetate pH 8, 0.05% Tween-80, read-out: dissociation constant (Kd) of NMPP
T3 construct: In wild-type, murine, mature ferrochelatase, five tryptophan residues; penta-histidine tag (N); made in house; host or cells: E. coli BL21(DE3)
T3 sequence (P22315 54-422 P308R): T1 sequence (P22315 54-422) with P255R
Method: as §1, §2, §3

[4] = test system: ferrochelatase; conditions: background statement, potent inhibitor of ferrochelatase; cited from earlier work

Kd [1]: 0.009 ± 0.005 µM
Kd [2]: 0.3 ± 0.1 µM
Kd [3]: 0.16 ± 0.07 µM
Substance: N-methyl protoporphyrin [NMPP]
Ki [4]: ~0.01 µM
